Results taken from PMC10850145, “Hormonal steroids induce multidrug resistance and stress response genes in Neisseria gonorrhoeae by binding to MtrR” (Nature Communications, 2024).
Where “and” joins values, the source holds several entries; their conditions need not be identical. Equal values may be shown once. Read-outs that look alike come from different tables or passages of the source.

Columns and labels:
FA19-rpoH-lacZ = assay: Gonococcal growth in liquid culture (GC broth) with hormones (Fig S7)
FA19 mtrD::kan (KH14) = assay: MIC of steroidal hormones on GC agar, FA19 mtrD::kan (KH14); assay type: cell-based, Neisseria gonorrhoeae
Procedure: (§1) To determine the minimal inhibitory concentrations (MICs) by the steroidal hormones and their effect on antimicrobial susceptibility, 5 x 10^5 CFU and 1:5 serial dilutions of gonococcal strains were spotted on GC agar plates containing different concentrations of antibiotics and/or hormones as indicated. Antimicrobial susceptibility was assessed after 24 h incubation.
(§2) Table S1. Steroidal hormones are substrates of the MtrCDE efflux pump
(§3) Progesterone Testosterone
(§4) *Minimal inhibition concentration is defined by the lowest concentration at which visible growth is […]

gonococcal strain FA19 = assay: MIC of steroidal hormones on GC agar, strain FA19; assay type: cell-based; details: Neisseria gonorrhoeae, strain FA19, GC agar, read-out: MIC
Procedure: as §1, §2, §3, §4

SMILES: CC(=O)[C@H]1CC[C@H]2[C@@H]3CCC4=CC(=O)CC[C@]4(C)[C@H]3CC[C@]12C [Progesterone, progesterone]
- growth curve reading after BLANKING (FA19-rpoH-lacZ; 0 hr, 0.1 µM): 0.013
- growth curve reading, raw replicates (FA19-rpoH-lacZ; 0 hr, 0.1 µM): 0.046
- growth curve reading after BLANKING (FA19-rpoH-lacZ; 0 hr, 1 µM): 0.013
- growth curve reading, raw replicates (FA19-rpoH-lacZ; 0 hr, 1 µM): 0.046
- growth curve reading after BLANKING (FA19-rpoH-lacZ; 0 hr, 10 µM): 0.013
- growth curve reading, raw replicates (FA19-rpoH-lacZ; 0 hr, 10 µM): 0.046
- growth curve reading after BLANKING (FA19-rpoH-lacZ; 0 hr, 25 µM): 0.013
- growth curve reading, raw replicates (FA19-rpoH-lacZ; 0 hr, 25 µM): 0.046
- growth curve reading after BLANKING (FA19-rpoH-lacZ; 0 hr, 50 µM): 0.013
- growth curve reading, raw replicates (FA19-rpoH-lacZ; 0 hr, 50 µM): 0.046
- growth curve reading after BLANKING (FA19-rpoH-lacZ; 1.18 hr, 0.1 µM): 0.018
- growth curve reading, raw replicates (FA19-rpoH-lacZ; 1.18 hr, 0.1 µM): 0.051 and 0.052
- growth curve reading after BLANKING (FA19-rpoH-lacZ; 1.18 hr, 1 µM): 0.020
- growth curve reading, raw replicates (FA19-rpoH-lacZ; 1.18 hr, 1 µM): 0.051 and 0.054
- growth curve reading after BLANKING (FA19-rpoH-lacZ; 1.18 hr, 10 µM): 0.019
- growth curve reading, raw replicates (FA19-rpoH-lacZ; 1.18 hr, 10 µM): 0.051 and 0.052
- growth curve reading after BLANKING (FA19-rpoH-lacZ; 1.18 hr, 25 µM): 0.018
- growth curve reading, raw replicates (FA19-rpoH-lacZ; 1.18 hr, 25 µM): 0.051 and 0.052
- growth curve reading after BLANKING (FA19-rpoH-lacZ; 1.18 hr, 50 µM): 0.017
- growth curve reading, raw replicates (FA19-rpoH-lacZ; 1.18 hr, 50 µM): 0.049 and 0.051
- growth curve reading after BLANKING (FA19-rpoH-lacZ; 2 hr, 0.1 µM): 0.029
- growth curve reading, raw replicates (FA19-rpoH-lacZ; 2 hr, 0.1 µM): 0.062
- growth curve reading after BLANKING (FA19-rpoH-lacZ; 2 hr, 1 µM): 0.031
- growth curve reading, raw replicates (FA19-rpoH-lacZ; 2 hr, 1 µM): 0.063 and 0.066
- growth curve reading after BLANKING (FA19-rpoH-lacZ; 2 hr, 10 µM): 0.029
- growth curve reading, raw replicates (FA19-rpoH-lacZ; 2 hr, 10 µM): 0.062
- growth curve reading after BLANKING (FA19-rpoH-lacZ; 2 hr, 25 µM): 0.030
- growth curve reading, raw replicates (FA19-rpoH-lacZ; 2 hr, 25 µM): 0.062 and 0.065
- growth curve reading after BLANKING (FA19-rpoH-lacZ; 2 hr, 50 µM): 0.026
- growth curve reading, raw replicates (FA19-rpoH-lacZ; 2 hr, 50 µM): 0.060 and 0.059
- growth curve reading after BLANKING (FA19-rpoH-lacZ; 3 hr, 0.1 µM): 0.038
- growth curve reading, raw replicates (FA19-rpoH-lacZ; 3 hr, 0.1 µM): 0.072 and 0.070
- growth curve reading after BLANKING (FA19-rpoH-lacZ; 3 hr, 1 µM): 0.046
- growth curve reading, raw replicates (FA19-rpoH-lacZ; 3 hr, 1 µM): 0.080 and 0.077
- growth curve reading after BLANKING (FA19-rpoH-lacZ; 3 hr, 10 µM): 0.037
- growth curve reading, raw replicates (FA19-rpoH-lacZ; 3 hr, 10 µM): 0.070
- growth curve reading after BLANKING (FA19-rpoH-lacZ; 3 hr, 25 µM): 0.046
- growth curve reading, raw replicates (FA19-rpoH-lacZ; 3 hr, 25 µM): 0.079
- growth curve reading after BLANKING (FA19-rpoH-lacZ; 3 hr, 50 µM): 0.033
- growth curve reading, raw replicates (FA19-rpoH-lacZ; 3 hr, 50 µM): 0.067 and 0.065
- growth curve reading after BLANKING (FA19-rpoH-lacZ; 4 hr, 0.1 µM): 0.053
- growth curve reading, raw replicates (FA19-rpoH-lacZ; 4 hr, 0.1 µM): 0.086
- growth curve reading after BLANKING (FA19-rpoH-lacZ; 4 hr, 1 µM): 0.062
- growth curve reading, raw replicates (FA19-rpoH-lacZ; 4 hr, 1 µM): 0.093 and 0.096
- growth curve reading after BLANKING (FA19-rpoH-lacZ; 4 hr, 10 µM): 0.050
- growth curve reading, raw replicates (FA19-rpoH-lacZ; 4 hr, 10 µM): 0.082 and 0.084
- growth curve reading after BLANKING (FA19-rpoH-lacZ; 4 hr, 25 µM): 0.062
- growth curve reading, raw replicates (FA19-rpoH-lacZ; 4 hr, 25 µM): 0.096 and 0.093
- growth curve reading after BLANKING (FA19-rpoH-lacZ; 4 hr, 50 µM): 0.044
- growth curve reading, raw replicates (FA19-rpoH-lacZ; 4 hr, 50 µM): 0.076 and 0.078
- growth curve reading after BLANKING (FA19-rpoH-lacZ; 5 hr, 0.1 µM): 0.071
- growth curve reading, raw replicates (FA19-rpoH-lacZ; 5 hr, 0.1 µM): 0.103 and 0.104
- growth curve reading after BLANKING (FA19-rpoH-lacZ; 5 hr, 1 µM): 0.079
- growth curve reading, raw replicates (FA19-rpoH-lacZ; 5 hr, 1 µM): 0.110 and 0.113
- growth curve reading after BLANKING (FA19-rpoH-lacZ; 5 hr, 10 µM): 0.065
- growth curve reading, raw replicates (FA19-rpoH-lacZ; 5 hr, 10 µM): 0.096 and 0.099
- growth curve reading after BLANKING (FA19-rpoH-lacZ; 5 hr, 25 µM): 0.078
- growth curve reading, raw replicates (FA19-rpoH-lacZ; 5 hr, 25 µM): 0.113 and 0.110
- growth curve reading after BLANKING (FA19-rpoH-lacZ; 5 hr, 50 µM): 0.056
- growth curve reading, raw replicates (FA19-rpoH-lacZ; 5 hr, 50 µM): 0.087 and 0.090
- growth curve reading after BLANKING (FA19-rpoH-lacZ; 5.95 hr, 0.1 µM): 0.089
- growth curve reading, raw replicates (FA19-rpoH-lacZ; 5.95 hr, 0.1 µM): 0.121 and 0.123
- growth curve reading after BLANKING (FA19-rpoH-lacZ; 5.95 hr, 1 µM): 0.097
- growth curve reading, raw replicates (FA19-rpoH-lacZ; 5.95 hr, 1 µM): 0.130
- growth curve reading after BLANKING (FA19-rpoH-lacZ; 5.95 hr, 10 µM): 0.080
- growth curve reading, raw replicates (FA19-rpoH-lacZ; 5.95 hr, 10 µM): 0.112 and 0.115
- growth curve reading after BLANKING (FA19-rpoH-lacZ; 5.95 hr, 25 µM): 0.095
- growth curve reading, raw replicates (FA19-rpoH-lacZ; 5.95 hr, 25 µM): 0.130 and 0.126
- growth curve reading after BLANKING (FA19-rpoH-lacZ; 5.95 hr, 50 µM): 0.070
- growth curve reading, raw replicates (FA19-rpoH-lacZ; 5.95 hr, 50 µM): 0.103 and 0.104
- growth curve reading after BLANKING (FA19-rpoH-lacZ; 6.82 hr, 0.1 µM): 0.100
- growth curve reading, raw replicates (FA19-rpoH-lacZ; 6.82 hr, 0.1 µM): 0.130
- growth curve reading after BLANKING (FA19-rpoH-lacZ; 6.82 hr, 1 µM): 0.112
- growth curve reading after BLANKING (FA19-rpoH-lacZ; 6.82 hr, 10 µM): 0.091
- growth curve reading, raw replicates (FA19-rpoH-lacZ; 6.82 hr, 10 µM): 0.126 and 0.123
- growth curve reading after BLANKING (FA19-rpoH-lacZ; 6.82 hr, 25 µM): 0.109
- growth curve reading after BLANKING (FA19-rpoH-lacZ; 6.82 hr, 50 µM): 0.083
- growth curve reading, raw replicates (FA19-rpoH-lacZ; 6.82 hr, 50 µM): 0.114 and 0.119
- MIC (FA19 mtrD::kan (KH14); Neisseria gonorrhoeae): 20 µg/mL and 64 µM
- effect of mtrD deletion on MIC (FA19 mtrD::kan (KH14); vs FA19): lowered
- MIC (gonococcal strain FA19; 24 h): 127 µM
- MIC (gonococcal strain FA19): 40 µg/mL
